The results in this text go back to PMC4116524, “A virtual screen identified C96 as a novel inhibitor of phosphatidylinositol 3-kinase that displays potent preclinical activity against multiple myeloma in vitro and in vivo” (Oncotarget, 2014).

Entries after “also recorded” stand apart in the source; their conditions may differ.

For this data set, the system named is JJN3 xenograft. As to the kind of experiment: Myeloma xenograft study. Format: in vivo, nude mice. How it is done:
To further evaluate the anti-myeloma efficacy of C96 in vivo, a human multiple myeloma xenograft model was established by subcutaneous injection of JJN3 into nude mice. When these tumors were palpable, mice were randomly divided into two groups (n=5) and one of them were orally administrated C96 (100 mg/kg body weight, 1/10 of the oral LD50), the other one were given the same volume of vehicle on a daily base for continued 16 days. Tumor sizes and body weight were monitored every other day. […] In contrast, the tumors in the vehicle group grew in a steady rate.
Figure 7 C96 delays myeloma tumor growth in a xenograft mouse model (A) JJN3 cells were injected subcutaneously into nude mice with a density of 30 million cells/site/mouse. When tumors were palpable, mice (n=5/group) were orally given C96 (100 mg/kg body weight) in PBS containing 10% Tween 80 and 10% DMSO daily for continuous 16 days. Tumor volumes were monitored every other day. (B) Mouse body weight was monitored every other day. (C) At the end of the experiment, tumor samples from each group were subjected to immunoblotting analysis for the expression levels of p-AKT, T-AKT, p-mTOR and mTOR with specific antibodies. GAPDH was used as a loading control.
JJN3 cells (30 million cells/injection) were inoculated s.c. into the right flanks of nude mice (5-6 weeks old, female, Shanghai Slac Laboratory Animal Co. Ltd., Shanghai). When tumors were palpable, mice were randomly divided into two groups (n=5). One group was orally administrated C96 (100 mg/kg body weight, or 1/10 oral LD50) dissolved in PBS containing 10% Tween 80 and DMSO daily for continued 16 days, another group was received the vehicle only. Tumor sizes were measured every other day with a caliper and calculated according to the formula (V=0.5236a²b, where a is the smallest superficial diameter and b is the largest superficial diameter). Body weight of each mouse was also monitored. At the end of the experiment, mice were sacrificed in a CO2 chamber containing dry ice. Tumor tissues were then excised, weighed, and snap-frozen in liquid nitrogen for further studies. To examine protein expression, tumor tissues were minced and ultrasonicated in the lysis buffer to extract proteins, which were further applied for immunoblotting analyses using specific antibodies against AKT, p-AKT, p-mTOR, mTOR, and GAPDH. This xenograft study was carried out in accordance with The Code of Ethics of the World Medical Association (Declaration of Helsinki) for experiments in animals and it was approved by the Animal Ethics and Welfare Review Board of Soochow University.

`O=C1NC(=O)C(=CC=Cc2cccs2)C(=O)N1` [C96, 5-(3-(2-thienyl)-2-propen-1-ylidene)-2,4,6(1H,3H,5H)-pyrimidinetrione]: under “100 mg/kg oral daily, 16-day treatment”, the “effects on body weight” value is on record as “minimal effects”. In addition, under “100 mg/kg oral daily, 16 days”, the gross toxicity entry is on record as “no gross toxicity” and the tumor growth entry was “almost fully suppressed tumor growth; also recorded: delayed MM tumor growth”. Under “100 mg/kg oral daily, within 16 days”, the tumor growth suppression result is listed as “more than 90%”. Besides, the “AKT and mTOR phosphorylation in myeloma tumor tissues” value (tumors excised at end of experiment, immunoblotting) is recorded as “decreased”.
